Reference: patent publication US10654845B2, “2-(het)aryl-substituted fused bicyclic heterocycle derivatives as pesticides” (BAYER CROPSCIENCE AKTIENGESELLSCHAFT, priority 2015, dated 2020)

Columns and labels:
[1] = log P by HPLC on reversed-phase column (C18), EEC Directive 79/831 Annex V.A8
From the text: Called log P (HCOOH) in the table.
Called log P (neutral) in the table.

[2] = tested on: Phaedon cochleariae; assay: Phaedon cochleariae spray test; type: in vivo; settings: after 7 days, beetle larvae killed; for pest or weed control at 500 g/ha: Phaedon cochleariae, 168 h, read-out: efficacy in %
Procedure: Phaedon cochleariae-Spray Test
Solvent: 78.0 parts by weight of acetone
• 1.5 parts by weight of dimethylformamide Emulsifier: alkylaryl polyglycol ether
To produce a suitable preparation of active compound, 1 part by weight of active compound is dissolved using the stated parts by weight of solvent and made up with water containing an emulsifier concentration of 1000 ppm until the desired concentration is attained. To produce further test concentrations, the preparation is diluted with emulsifier-containing water.
After 7 days, the efficacy in % is determined. 100% means that all the beetle larvae have been killed; 0% means that no beetle larvae have been killed.

[3] = reversed-phase HPLC column (C18), pH 7.8, log P (neutral), preparation examples, neutral range, pH 7.8
[4] = reversed-phase HPLC column (C18), pH 2.7, logP-acidic, LC-MS acidic range, pH 2.7 (HCOOH), C18, 55° C.
[5] = reversed-phase HPLC column (C18), pH 7.8, logP-neutral, LC-MS neutral range, pH 7.8, C18, 55° C.
[6] = LC-MS acidic range, pH 2.7 (HCOOH), C18, 55° C.
[7] = LC-MS neutral range, pH 7.8, C18, 55° C.

| SMILES | chromatographic logP [1, 3] | logP-acidic ([1]; pH 2.7) | logP-neutral ([1]; pH 7.8) | also measured |
| --- | --- | --- | --- | --- |
| CCS(=O)(=O)c1ccc(SCc2ccccc2)nc1-c1nc2cc(C(F)(F)F)ncc2n1C [Example 30, 2-[6-(Benzylsulphanyl)-3-(ethylsulphonyl)pyridin-2-yl]-3-methyl-6-(trifluoromethyl)-3H-imidazo[4,5-c]pyridine] |  |  |  | chromatographic logP ([1]; pH 2.7): 3.81; chromatographic logP ([1]; pH 7.8): 3.72 |
| CCS(=O)(=O)c1ccc(Oc2cc(C(F)(F)F)n[nH]2)nc1-c1nc2cc(C(F)(F)F)ncc2n1C [Example 17] |  | 2.77 | 2.69 |  |
| CCSc1ccc(NC(=O)C2CC2)nc1-c1nc2cc(C(F)(F)F)ncc2n1C [Example 1] |  | 2.80 | 2.79 | efficacy in % ([2]; 500 g/ha): 100% |
| CCS(=O)(=O)c1ccc(Sc2ccccc2)nc1-c1nc2cc(C(F)(F)F)ncc2n1C [Example 42] |  |  |  | logP-acidic [1, 6]: 3.68; logP-neutral [1, 7]: 3.64 |
| CCCOc1ccc(S(=O)(=O)CC)c(-c2nc3cc(C(F)(F)F)ncc3n2C)n1 [Example 51] |  | 3.37 | 3.36 | efficacy in % ([2]; 500 g/ha): 100% |
| CCS(=O)(=O)c1ccc(C(N)=O)nc1-c1nc2cc(C(F)(F)F)ncc2n1C [Example 46] |  |  |  | efficacy in % ([2]; 500 g/ha): 100%; logP-acidic [1, 6]: 1.78; logP-neutral [1, 7]: 1.68 |
| CCS(=O)(=O)c1ccc(N(S(C)(=O)=O)S(C)(=O)=O)nc1-c1nc2cc(C(F)(F)F)ncc2n1C [Example 25] |  | 2.47 |  |  |
| CCSc1ccc(NC(=O)CC)nc1-c1nc2cc(C(F)(F)F)ncc2n1C [Example 27] |  | 2.73 | 2.62 | efficacy in % ([2]; 500 g/ha): 100% |
| CCS(=O)(=O)c1ccc(S(=O)(=O)N(C)C)nc1-c1nc2cc(C(F)(F)F)ncc2n1C [Example 50] |  | 2.54 | 2.47 |  |
| CCSc1ccc(F)nc1-c1nc2cc(C(F)(F)F)ncc2n1C [Ex. XI-2, 2-[3-(Ethylsulphanyl)-6-fluoropyridin-2-yl]-3-methyl-6-(trifluoromethyl)-3H-imidazo[4,5-c]pyridine] | 2.73 |  |  |  |
| CCSc1ccc(NC(=O)C(F)(F)F)nc1-c1nc2cc(C(F)(F)F)ncc2n1C [Example 6] |  | 3.18 |  | efficacy in % ([2]; 500 g/ha): 100% |
| CCS(=O)(=O)c1ccc(NC(=O)Cc2ccccc2)nc1-c1nc2cc(C(F)(F)F)ncc2n1C [Example 68] |  |  |  | efficacy in % ([2]; 500 g/ha): 100% |
| CCS(=O)(=O)c1ccc(S(=O)(=O)NC(C)C)nc1-c1nc2cc(C(F)(F)F)ncc2n1C [Example 49, 5-(Ethylsulphonyl)-N-isopropyl-6-[3-methyl-6-(trifluoromethyl)-3H-imidazo[4,5-c]pyridin-2-yl]pyridine-2-sulphonamide] | 2.49 |  |  | chromatographic logP [1, 4]: 2.56; chromatographic logP [1, 5]: 2.49 |
| Cn1c(-c2nc(F)ccc2F)nc2cc(C(F)(F)F)ncc21 [Ex. IX-2, 2-(3,6-Difluoropyridin-2-yl)-3-methyl-6-(trifluoromethyl)-3H-imidazo[4,5-c]pyridine] | 2.11 |  |  |  |

Further lines, with some results ahead:

| chromatographic logP [1, 3] | logP-acidic ([1]; pH 2.7) | logP-neutral ([1]; pH 7.8) | SMILES | also measured |
| --- | --- | --- | --- | --- |
| 2.3 |  |  | CCS(=O)(=O)c1ccc(F)nc1-c1nc2cc(C(F)(F)F)ncc2n1C [Ex. XIII-2, 2-[3-(Ethylsulphonyl)-6-fluoropyridin-2-yl]-3-methyl-6-(trifluoromethyl)-3H-imidazo[4,5-c]pyridine] |  |
| 2.27 |  |  | CCS(=O)(=O)c1ccc(S(=O)(=O)CC)c(-c2nc3cc(C(F)(F)F)ncc3n2C)n1 [Example 15, 2-[3,6-Bis(ethylsulphonyl)pyridin-2-yl]-3-methyl-6-(trifluoromethyl)-3H-imidazo[4,5-c]pyridine] | pest or weed control at 500 g/ha ([2]; 500 g/ha): 100%; chromatographic logP [1, 4]: 2.31; chromatographic logP [1, 5]: 2.28 |
| 1.79 |  |  | CCS(=N)(=O)c1ccc(S(=O)(=O)CC)c(-c2nc3cc(C(F)(F)F)ncc3n2C)n1 (stereo not drawn) [Example 41, 2-[6-(S-Ethylsulphonimidoyl)-3-(ethylsulphonyl)pyridin-2-yl]-3-methyl-6-(trifluoromethyl)-3H-imidazo[4,5-c]pyridine] | chromatographic logP [1, 4]: 1.78; chromatographic logP [1, 5]: 1.79 |
|  | 3.36 |  | CCSc1ccc(NC(=O)c2ccccc2)nc1-c1nc2cc(C(F)(F)F)ncc2n1C [Example 19] |  |
| 2.75 |  |  | CCS(=O)(=O)c1ccc(SC)nc1-c1nc2cc(C(F)(F)F)ncc2n1C [Example 28, 2-[3-(Ethylsulphonyl)-6-(methylsulphanyl)pyridin-2-yl]-3-methyl-6-(trifluoromethyl)-3H-imidazo[4,5-c]pyridine] | chromatographic logP [1, 4]: 2.81; chromatographic logP [1, 5]: 2.75 |
| 0.76 |  |  | CCS(=O)(=O)c1ccc(C(=O)O)nc1-c1nc2cc(C(F)(F)F)ncc2n1C [5-(Ethylsulphonyl)-6-[3-methyl-6-(trifluoromethyl)-3H-imidazo[4,5-c]pyridin-2-yl]pyridine-2-carboxylic acid] |  |
|  | 3.17 | 3.14 | CCNC(=S)c1ccc(S(=O)(=O)CC)c(-c2nc3cc(C(F)(F)F)ncc3n2C)n1 [Example 35] |  |
|  | 2.66 | 2.66 | CCS(=O)(=O)c1ccc([S+]([O-])Cc2ccccc2)nc1-c1nc2cc(C(F)(F)F)ncc2n1C (stereo not drawn) [Example 39] |  |
|  | 2.36 | 2.30 | CCNS(=O)(=O)c1ccc(S(=O)(=O)CC)c(-c2nc3cc(C(F)(F)F)ncc3n2C)n1 [Example 48] |  |
| 0.85 |  |  | CCS(=O)(=O)c1ccc(NS(C)(=O)=O)nc1-c1nc2cc(C(F)(F)F)ncc2n1C [Example 26, N-{5-(Ethylsulphonyl)-6-[3-methyl-6-(trifluoromethyl)-3H-imidazo[4,5-c]pyridin-2-yl]pyridin-2-yl}methanesulphonamide] | pest or weed control at 500 g/ha ([2]; 500 g/ha): 100%; chromatographic logP [1, 4]: 1.92; chromatographic logP [1, 5]: 0.85 |
|  | 2.08 | 2.12 | CCS(=O)(=O)c1ccc(NC(=O)c2cccnc2)nc1-c1nc2cc(C(F)(F)F)ncc2n1C [Example 54] | efficacy in % ([2]; 500 g/ha): 100% |
|  | 2.15 | 2.08 | CCS(=O)(=O)c1ccc(S(=O)(=O)NC)nc1-c1nc2cc(C(F)(F)F)ncc2n1C [Example 47] |  |
|  | 2.08 | 2.08 | CCS(=O)(=O)c1ccc(S(C)(=O)=O)nc1-c1nc2cc(C(F)(F)F)ncc2n1C [Example 45] |  |
| 2.01 |  |  | CCS(=O)(=O)c1ccc(NC(C)=O)nc1-c1nc2cc(C(F)(F)F)ncc2n1C [N-[5-Ethylsulphonyl-6-[3-methyl-6-(trifluoromethyl)imidazo[4,5-c]pyridin-2-yl]-2-pyridyl]acetamide] |  |
|  | 3.37 | 3.37 | CCS(=O)(=O)c1ccc(NC(=O)c2ccc(Cl)cc2)nc1-c1nc2cc(C(F)(F)F)ncc2n1C [Example 73] | efficacy in % ([2]; 100 g/ha): 100% |
| 2.17 |  |  | CCS(=O)(=O)c1ccc(C(=O)OC)nc1-c1nc2cc(C(F)(F)F)ncc2n1C [Example 12, Methyl 5-(ethylsulphonyl)-6-[3-methyl-6-(trifluoromethyl)-3H-imidazo[4,5-c]pyridin-2-yl]pyridine-2-carboxylate] | chromatographic logP [1, 4]: 2.17; chromatographic logP [1, 5]: 2.17 |
| 3.14 |  |  | CCSc1ccc(S(=O)(=O)CC)c(-c2nc3cc(C(F)(F)F)ncc3n2C)n1 [Example 5, 2-[6-(Ethylsulphanyl)-3-(ethylsulphonyl)pyridin-2-yl]-3-methyl-6-(trifluoromethyl)-3H-imidazo[4,5-c]pyridine] | chromatographic logP [1, 4]: 3.19; chromatographic logP [1, 5]: 3.14 |
